Assay results: patent publication US10993983B2, “Cyclic peptide epitopes and small-molecule mimics for inducing autophagy” (TRUSTEES OF TUFTS COLLEGE, priority 2016, dated 2021)
Marks after values point to notes of the source that are not given here. Where no end group is shown, it is not given here. c(FΦRRRRE) = cyclic peptide with F and E termini bonded, Φ = L-2-naphthylalanine

tested on: p62; assay: p62 degradation assay (p62/actin immunoblot);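 on Activity (μM) 10, p62/actin assay activity: HeLa cells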;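 on Activity (μM) 100, p62/actin assay activity: HeLa cells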;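 on Activity (μM) 20, p62/actin assay activity: HeLa cells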;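 on Activity (μM) 30, p62/actin assay activity: HeLa cells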;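 on Activity (μM) 50, p62/actin assay activity: HeLa cells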; format: cell-based; design: key: −: activity not reported; 0: decreased vs. WT; +: similar to WT; ++: modest increase vs. WT; +++: significant increase vs. WT; conditions: 5 μM; Table 8, control compound T25; first symbol
Protocol: (§1) Cells were treated with peptide in OPTI-MEM (Thermo Scientific) acidified with 0.15% (v/v) 6N HCl for 3 hour. Cells were rinsed with Dulbecco's phosphate buffered saline (PBS) and lysed in lysis buffer (20 mM HEPES, 150 mM NaCl, 1 mM EDTA, 1% Triton X-100, protease inhibitor cocktail (Roche) on ice for 1 hour. Cell lysates were centrifuged at 16,000 g for 10 min at 4° C. and analyzed by SDS-PAGE and transferred to PVDF membranes. The membranes were blocked 5% non-fat dry milk (NFDM) in PBST (PBS+0.05% Tween-20) for 1 hour, then incubated overnight at 4° C. with primary antibody in 5% NFDM in PBST. The blots were washed with PBST and incubated with HRP-conjugated secondary antibodies diluted in 5% NFDM in PBST for 1 hour at room temperature. Membranes were washed with PBST and visualized with SuperSignal West Pico Chemiluminescent Substrate (Thermo Scientific). Semi-quantitative results were obtained by noting the lowest concentration at which both p62 degradation and LC3-I to LC3-II conversion were observed.
(§2) Compounds 1-10 were evaluated using the assays described in Examples 4 and 5. Activity for each compound was measured in the p62 degradation assay and the LC3 marker assay as described herein. The activity at each concentration of peptide is given as, for example, (0/+) where 0 would be the p62/actin assay activity and + would be the LC3 assay activity.

| Sequence | Activity (μM) 5, p62/actin assay activity |
| --- | --- |
| VWNATCHIWC [Compound 59] | 0/0 |
| VCNATCHIWH [Compound 33] | 0/0 |

same assay, conditions: 10 μM; Table 3, control vehicle; first symbol of cell

| Sequence | Activity (μM) 10, p62/actin assay activity |
| --- | --- |
| YGRKKRRQRRRGGVWNATFHIWHD [8] (not fully specified (N-terminus, C-terminus)) [Compound 8] | 0 |
| VCNACFHIWH [Compound 9] | 0/0 |
| VCNACFHIWH [Compound 10] | 0 |
| VWNATFHIWH (not fully specified (N-terminus, C-terminus)) [Compound 5, likely pa-10mer] | 0/0 |

same assay, conditions: 10 μM; Table 6, control DMSO; first symbol

| Sequence | Activity (μM) 10, p62/actin assay activity |
| --- | --- |
| VCNATCHIWH [Compound 25] | ++/++ |
| VCNATCHIWH [Compound 19] | + |
| VCNATCHIWH [Compound 24] | ++/++ |
| VCNATCHIWH [Compound 26] | ++ |

same assay, conditions: 10 μM; Table 8, control compound T25; first symbol

| Sequence | Activity (μM) 10, p62/actin assay activity |
| --- | --- |
| VWNATFHIWHD [62] ({c(FΦRRRRE)}-VWNATFHIWHD; not fully specified; printed as R1 cyclic c(FΦRRRRE) attached) [Compound 62] | ++ |
| VWNATCHIWC [Compound 59] | 0/0 |
| VCNATCHIWH [Compound 33] | 0 |

same assay, conditions: 20 μM; Table 3, control vehicle; first symbol

| Sequence | Activity (μM) 20, p62/actin assay activity |
| --- | --- |
| YGRKKRRQRRRGGVWNATFHIWHD [8] (not fully specified (N-terminus, C-terminus)) [Compound 8] | 0 |
| VCNACFHIWH [Compound 9] | 0/0 |
| VCNACFHIWH [Compound 10] | 0 |
| VWNATFHIWH (not fully specified (N-terminus, C-terminus)) [Compound 5, likely pa-10mer] | 0/0 |

same assay, conditions: 30 μM; Table 6, control DMSO; first symbol

| Sequence | Activity (μM) 30, p62/actin assay activity |
| --- | --- |
| VCNATCHIWH [Compound 25] | ++/++ |
| VCNATCHIWH [Compound 19] | ++ |
| VCNATCHIWH [Compound 24] | +++ |
| VCNATCHIWH [Compound 26] | +++/+++ |

same assay, conditions: 30 μM; Table 8, control compound T25; first symbol

| Sequence | Activity (μM) 30, p62/actin assay activity |
| --- | --- |
| VWNATCHIWC [Compound 59] | 0/0 |
| VCNATCHIWH [Compound 33] | +++ |
| VWNATFHIWH (not fully specified (N-terminus, C-terminus)) [Compound 5, likely pa-10mer] | 0/0 |

same assay, conditions: 50 μM; Table 3, control vehicle; first symbol

| Sequence | Activity (μM) 50, p62/actin assay activity |
| --- | --- |
| YGRKKRRQRRRGGVWNATFHIWHD [8] (not fully specified (N-terminus, C-terminus)) [Compound 8] | ++ |
| VCNACFHIWH [Compound 9] | 0/0 |
| VCNACFHIWH [Compound 10] | 0 |
| VWNATFHIWH (not fully specified (N-terminus, C-terminus)) [Compound 5, likely pa-10mer] | 0 |

same assay, conditions: 50 μM; Table 6, control DMSO; first symbol

| Sequence | Activity (μM) 50, p62/actin assay activity |
| --- | --- |
| VCNATCHIWH [Compound 25] | +++/+++ |
| VCNATCHIWH [Compound 19] | ++ |
| VCNATCHIWH [Compound 24] | +++ |
| VCNATCHIWH [Compound 26] | +++/+++ |

same assay, conditions: 50 μM; Table 8, control compound T25; first symbol

| Sequence | Activity (μM) 50, p62/actin assay activity |
| --- | --- |
| VCNATCHIWH [Compound 33] | +++/+++ |
| VWNATFHIWH (not fully specified (N-terminus, C-terminus)) [Compound 5, likely pa-10mer] | 0/0 |

same assay, conditions: 100 μM; Table 3, control vehicle; first symbol

| Sequence | Activity (μM) 100, p62/actin assay activity |
| --- | --- |
| VWNATFHIWH (not fully specified (N-terminus, C-terminus)) [Compound 5, likely pa-10mer] | +/+ |

same assay, conditions: 100 μM; Table 6, control DMSO; first symbol

| Sequence | Activity (μM) 100, p62/actin assay activity |
| --- | --- |
| VCNATCHIWH [Compound 25] | +++/+++ |
| VCNATCHIWH [Compound 19] | +++ |
| VCNATCHIWH [Compound 24] | +++ |
| VCNATCHIWH [Compound 26] | +++/+++ |

same assay, conditions: 100 μM; Table 8, control compound T25; first symbol

| Sequence | Activity (μM) 100, p62/actin assay activity |
| --- | --- |
| VCNATCHIWH [Compound 33] | +++/+++ |
| VWNATFHIWH (not fully specified (N-terminus, C-terminus)) [Compound 5, likely pa-10mer] | 0/0 |

same assay, conditions: Table 8; 10 μM marked * (footnote: data taken at 20 instead of 30 μM); first symbol

| Sequence | Activity (μM) 10, starred cell, p62/actin assay activity |
| --- | --- |
| VWNATFHIWH (not fully specified (N-terminus, C-terminus)) [Compound 5, likely pa-10mer] | 0/0* |

same assay, conditions: Table 8; *Data taken at 20 instead of 30 μM; first symbol

| Sequence | Activity (μM) 30, starred cell, p62/actin assay activity |
| --- | --- |
| VWNATFHIWHD [62] ({c(FΦRRRRE)}-VWNATFHIWHD; not fully specified; printed as R1 cyclic c(FΦRRRRE) attached) [Compound 62] | +++/+++* |

tested on: LC3; assay: LC3 marker assay (LC3-I to LC3-II conversion immunoblot);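 on Activity (μM) 10, LC3 assay activity: HeLa cells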;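 on Activity (μM) 100, LC3 assay activity: HeLa cells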;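 on Activity (μM) 20, LC3 assay activity: HeLa cells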;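 on Activity (μM) 30, LC3 assay activity: HeLa cells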;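 on Activity (μM) 50, LC3 assay activity: HeLa cells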; format: cell-based; design: key: −: activity not reported; 0: decreased vs. WT; +: similar to WT; ++: modest increase vs. WT; +++: significant increase vs. WT; conditions: 5 μM; Table 8, control compound T25; second symbol
Protocol: as §1, §2

| Sequence | Activity (μM) 5, LC3 assay activity |
| --- | --- |
| VWNATCHIWC [Compound 59] | 0/0 |
| VCNATCHIWH [Compound 33] | 0/0 |

same assay, conditions: 10 μM; Table 3, control vehicle; second symbol of cell

| Sequence | Activity (μM) 10, LC3 assay activity |
| --- | --- |
| YGRKKRRQRRRGGVWNATFHIWHD [8] (not fully specified (N-terminus, C-terminus)) [Compound 8] | + |
| VCNACFHIWH [Compound 9] | 0/0 |
| VCNACFHIWH [Compound 10] | + |
| VWNATFHIWH (not fully specified (N-terminus, C-terminus)) [Compound 5, likely pa-10mer] | 0/0 |

same assay, conditions: 10 μM; Table 6, control DMSO; second symbol

| Sequence | Activity (μM) 10, LC3 assay activity |
| --- | --- |
| VCNATCHIWH [Compound 25] | ++/++ |
| VCNATCHIWH [Compound 19] | 0 |
| VCNATCHIWH [Compound 24] | ++/++ |
| VCNATCHIWH [Compound 26] | +++ |

same assay, conditions: 10 μM; Table 8, control compound T25; second symbol

| Sequence | Activity (μM) 10, LC3 assay activity |
| --- | --- |
| VWNATFHIWHD [62] ({c(FΦRRRRE)}-VWNATFHIWHD; not fully specified; printed as R1 cyclic c(FΦRRRRE) attached) [Compound 62] | +++ |
| VWNATCHIWC [Compound 59] | 0/0 |
| VCNATCHIWH [Compound 33] | + |

same assay, conditions: 20 μM; Table 3, control vehicle; second symbol

| Sequence | Activity (μM) 20, LC3 assay activity |
| --- | --- |
| YGRKKRRQRRRGGVWNATFHIWHD [8] (not fully specified (N-terminus, C-terminus)) [Compound 8] | ++ |
| VCNACFHIWH [Compound 9] | 0/0 |
| VCNACFHIWH [Compound 10] | ++ |
| VWNATFHIWH (not fully specified (N-terminus, C-terminus)) [Compound 5, likely pa-10mer] | 0/0 |

same assay, conditions: 30 μM; Table 6, control DMSO; second symbol

| Sequence | Activity (μM) 30, LC3 assay activity |
| --- | --- |
| VCNATCHIWH [Compound 25] | ++/++ |
| VCNATCHIWH [Compound 19] | 0 |
| VCNATCHIWH [Compound 24] | ++ |
| VCNATCHIWH [Compound 26] | +++/+++ |

same assay, conditions: 30 μM; Table 8, control compound T25; second symbol

| Sequence | Activity (μM) 30, LC3 assay activity |
| --- | --- |
| VWNATCHIWC [Compound 59] | 0/0 |
| VCNATCHIWH [Compound 33] | ++ |
| VWNATFHIWH (not fully specified (N-terminus, C-terminus)) [Compound 5, likely pa-10mer] | 0/0 |

same assay, conditions: 50 μM; Table 3, control vehicle; second symbol

| Sequence | Activity (μM) 50, LC3 assay activity |
| --- | --- |
| YGRKKRRQRRRGGVWNATFHIWHD [8] (not fully specified (N-terminus, C-terminus)) [Compound 8] | +++ |
| VCNACFHIWH [Compound 9] | 0/0 |
| VCNACFHIWH [Compound 10] | +++ |
| VWNATFHIWH (not fully specified (N-terminus, C-terminus)) [Compound 5, likely pa-10mer] | + |

same assay, conditions: 50 μM; Table 6, control DMSO; second symbol

| Sequence | Activity (μM) 50, LC3 assay activity |
| --- | --- |
| VCNATCHIWH [Compound 25] | +++/+++ |
| VCNATCHIWH [Compound 19] | + |
| VCNATCHIWH [Compound 24] | ++ |
| VCNATCHIWH [Compound 26] | +++/+++ |

same assay, conditions: 50 μM; Table 8, control compound T25; second symbol

| Sequence | Activity (μM) 50, LC3 assay activity |
| --- | --- |
| VCNATCHIWH [Compound 33] | +++/+++ |
| VWNATFHIWH (not fully specified (N-terminus, C-terminus)) [Compound 5, likely pa-10mer] | 0/0 |

same assay, conditions: 100 μM; Table 3, control vehicle; second symbol

| Sequence | Activity (μM) 100, LC3 assay activity |
| --- | --- |
| VWNATFHIWH (not fully specified (N-terminus, C-terminus)) [Compound 5, likely pa-10mer] | +/+ |

same assay, conditions: 100 μM; Table 6, control DMSO; second symbol

| Sequence | Activity (μM) 100, LC3 assay activity |
| --- | --- |
| VCNATCHIWH [Compound 25] | +++/+++ |
| VCNATCHIWH [Compound 19] | + |
| VCNATCHIWH [Compound 24] | ++ |
| VCNATCHIWH [Compound 26] | +++/+++ |

same assay, conditions: 100 μM; Table 8, control compound T25; second symbol

| Sequence | Activity (μM) 100, LC3 assay activity |
| --- | --- |
| VCNATCHIWH [Compound 33] | +++/+++ |
| VWNATFHIWH (not fully specified (N-terminus, C-terminus)) [Compound 5, likely pa-10mer] | 0/0 |

same assay, conditions: Table 8; 10 μM marked * (footnote: data taken at 20 instead of 30 μM); second symbol

| Sequence | Activity (μM) 10, starred cell, LC3 assay activity |
| --- | --- |
| VWNATFHIWH (not fully specified (N-terminus, C-terminus)) [Compound 5, likely pa-10mer] | 0/0* |

same assay, conditions: Table 8; *Data taken at 20 instead of 30 μM; second symbol

| Sequence | Activity (μM) 30, starred cell, LC3 assay activity |
| --- | --- |
| VWNATFHIWHD [62] ({c(FΦRRRRE)}-VWNATFHIWHD; not fully specified; printed as R1 cyclic c(FΦRRRRE) attached) [Compound 62] | +++/+++* |
